# Key:
# Test in all cases: Antibacterial activity in vitro, agar diffusion method in Davis Mingioli medium
# Assay type in all cases: cell-based
# [1] = system: Enterobacter cloacae 1321E; details: 100 mg/l aqueous solution in 9 mm wells, incubation 24 h at 37°C, read-out: zones d'inhibition (diamètre en mm)
# Protocol: (§1) L'activité antibactérienne des produits revendiqués a été déterminée par la méthode de diffusion en milieu de Davis Mingioli additionné de 1% d'agar. Les géloses utilisées sont coulées en boîtes de Petri à 48°C, après ensemencement à […] au moyen de la souche bactérienne test. Les inocula proviennent d'une pré-culture de 24 heures en bouillon de Davis Mingioli. Après durcissement des géloses, les solutions aqueuses des produits étudiés sont introduites dans des puits (9 mm) creusés dans le milieu à l'aide d'un emporte-pièce. Les zones d'inhibition observées (diamètre en mm) sont mesurées après incubation de 24 heures à 37°C.
# Escherichia Coli 078 = details: COLI078, 100 mg/l aqueous solution in 9 mm wells, incubation 24 h at 37°C, read-out: zones d'inhibition (diamètre en mm)
# Protocol: as §1
# Providencia sp. DU48 = details: 100 mg/l aqueous solution in 9 mm wells, incubation 24 h at 37°C, read-out: zones d'inhibition (diamètre en mm)
# Protocol: as §1
# [2] = system: Salmonella typhimurium MZ11; details: Salmonella enterica, 100 mg/l aqueous solution in 9 mm wells, incubation 24 h at 37°C, read-out: zones d'inhibition (diamètre en mm)
# Protocol: as §1
SMILES,zone of inhibition at 100 µg/mL [1] [mm],zone of inhibition at 100 µg/mL (Escherichia Coli 078) [mm],zone of inhibition at 100 µg/mL (Providencia sp. DU48) [mm],zone of inhibition at 100 µg/mL [2] [mm]
"C=CC(N)(CC(=C)CC(N)C(=O)O)C(=O)O (stereo not drawn) [exemple 4, Acide 2,6-diamino 2-éthényl 4-méthylène heptanedioïque]",26,17.5,29,31
"C=C(CC(N)C(=O)O)CC(N)(CC)C(=O)O (stereo not drawn) [exemple 7, Acide 2,6-diamino 2-éthyl 4-méthylène heptanedioïque]",29,18,28,34
"C#CC(N)(CC(=C)CC(NCc1ccccc1)C(=O)O)C(=O)O (stereo not drawn) [exemple 10, Acide 2-amino 2-éthynyl 4-méthylène 6-[(phénylméthyl)amino] heptanedioïque]",–,–,–,19

# Source: EP0394118B1, “2,6-Aminoheptanedioic acid unsaturated derivatives, process for their preparation and their use as medicaments” (ROUSSEL-UCLAF, priority 1989, dated 1990)
